Data reported in US9028845B2, “Chimeric immunomodulatory compounds and methods of using the same-IV” (Dynavax Technologies Corporation, priority 2001, dated 2015).

System: human PBMCs
Assay: Human PBMC cytokine response assay (IFN-γ and IFN-α in cell-free medium by ELISA), with or without cPLGA;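 for IFN-α (pg/ml) mean: 20 µg/mL compound for 24 hours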;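 for IFN-γ (pg/ml) mean: 20 µg/mL compound for 24 hours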
Type: cell-based
Conditions: for IFN-a / IFN-g / IFN-a (pg/ml) mean / IFN-g (pg/ml) mean / IFN-a (pg/ml) ×2 / IFN-g (pg/ml) ×4: Table 15; for IFN-a (pg/ml) mean / IFN-g (pg/ml) mean: mean of donors 28185-28188; for IFN-a (pg/ml) ×2: mean ×2; for IFN-g (pg/ml) ×4: mean ×4
[1] = Table 24, mean of donors 28234-28237
[2] = mean of donors 110, 112, 119, 120, Table 14
[3] = mean of donors 28057-28060, Table 16

Substance: (5′-TCGTCGA-3′-HEG)2-glycerol-HEG-5′-AACGTTC-3′-HEG-5′-TCGA-3′ [Compound C-97]
- IFN-α (Table 24, donor 28234): 16 pg/mL
- IFN-γ (Table 24, donor 28234): 10 pg/mL
- IFN-α (Table 24, donor 28235): 16 pg/mL
- IFN-γ (Table 24, donor 28235): 119 pg/mL
- IFN-α (Table 24, donor 28236): 140 pg/mL
- IFN-γ (Table 24, donor 28236): 269 pg/mL
- IFN-α (Table 24, donor 28237): 16 pg/mL
- IFN-γ (Table 24, donor 28237): 980 pg/mL
- IFN-α mean [1]: 47 pg/mL
- IFN-γ mean [1]: 345 pg/mL
- IFN-a (donor 28185): 307 pg/mL
- IFN-g (donor 28185): 259 pg/mL
- IFN-a (donor 28186): 71 pg/mL
- IFN-g (donor 28186): 16 pg/mL
- IFN-a (donor 28187): 4 pg/mL
- IFN-g (donor 28187): 125 pg/mL
- IFN-a (donor 28188): 2 pg/mL
- IFN-g (donor 28188): 5 pg/mL
- IFN-a (pg/ml) mean: 96 pg/mL
- IFN-g (pg/ml) mean: 101 pg/mL
- IFN-a (pg/ml) ×2: 192 pg/mL
- IFN-g (pg/ml) ×4: 405 pg/mL
- IFN-α induction, in words (used alone): reduction of IFN-α induction

Substance: 5′-TCGACTC-3′-HEG-5′-TCGAGCG-3′-HEG-5′-TTCTCTT-3′ [Compound C-63]
- IFN-α (donor 110, Table 14): 294 pg/mL
- IFN-γ (donor 110, Table 14): 1536 pg/mL
- IFN-α (donor 112, Table 14): 38 pg/mL
- IFN-γ (donor 112, Table 14): 376 pg/mL
- IFN-α (donor 119, Table 14): 464 pg/mL
- IFN-γ (donor 119, Table 14): 80 pg/mL
- IFN-α (donor 120, Table 14): 228 pg/mL
- IFN-γ (donor 120, Table 14): 60 pg/mL
- IFN-α (pg/ml) mean [2]: 256 pg/mL
- IFN-γ (pg/ml) mean [2]: 513 pg/mL

Substance: 5′-TCGTCG-3′-(TEG)8-5′-T-3′ [Compound C-15]
- IFN-α (donor 28057, Table 16): 0 pg/mL
- IFN-γ (donor 28057, Table 16): 5 pg/mL
- IFN-α (donor 28058, Table 16): 0 pg/mL
- IFN-γ (donor 28058, Table 16): 3 pg/mL
- IFN-α (donor 28059, Table 16): 0 pg/mL
- IFN-γ (donor 28059, Table 16): 0 pg/mL
- IFN-α (donor 28060, Table 16): 0 pg/mL
- IFN-γ (donor 28060, Table 16): 1 pg/mL
- activity when formulated with cPLGA, in words (formulated with cPLGA): all had significant activity when formulated on cPLGA
- IFN-α (pg/ml) mean [3]: 0 pg/mL
- IFN-γ (pg/ml) mean [3]: 2 pg/mL
- immunomodulatory activity (IFN-γ / IFN-α secretion), in words (used alone (no cPLGA)): None of the CICs was active when used alone

Substance: (5′-TCGAACGTTCGA-3′ (SEQ ID NO: 155)-HEG)2-glycerol-HEG-3′-AGCTTGCAAGCT-5′ (SEQ ID NO: 155) (DNA, all phosphorothioate, methylation of C not given here; Three DNA copies joined by HEG spacers and glycerol branching, one copy inverted) [Compound C-174]
- IFN-α (Example 58, 0.8 ug/ml, donor 1): 7907 pg/mL
- IFN-α (Example 58, 0.8 ug/ml, donor 2): 11198 pg/mL
- IFN-α (Example 58, 0.8 ug/ml, donor 3): 998 pg/mL
- IFN-α (Example 58, 0.8 ug/ml, donor 4): 1752 pg/mL
- IFN-α mean (Example 58, 0.8 ug/ml, mean of four individuals): 5464 pg/mL
- IFN-α (Example 58, 4 ug/ml, donor 1): 5601 pg/mL
- IFN-α (Example 58, 4 ug/ml, donor 2): 7845 pg/mL
- IFN-α (Example 58, 4 ug/ml, donor 3): 1016 pg/mL
- IFN-α (Example 58, 4 ug/ml, donor 4): 5895 pg/mL
- IFN-α mean (Example 58, 4 ug/ml, mean of four individuals): 5089 pg/mL
- IFN-α (Example 58, 20 ug/ml, donor 1): 1350 pg/mL
- IFN-α (Example 58, 20 ug/ml, donor 2): 1176 pg/mL
- IFN-α (Example 58, 20 ug/ml, donor 3): 61 pg/mL
- IFN-α (Example 58, 20 ug/ml, donor 4): 837 pg/mL
- IFN-α mean (Example 58, 20 ug/ml, mean of four individuals): 856 pg/mL
- IFN-α from human PBMC compared with parent oligonucleotide P-17, in words (low doses (e.g., 0.8 ug/ml), four individuals): induce significantly more IFN-α

Substance: 5′-TGCTGCA-3′-C3-5′-AGCTTGC-3′-C3-5′-AGATGAT-3′ (No CG) [Compound C-86]
- IFN-a (donor 28185): 7 pg/mL
- IFN-g (donor 28185): 1 pg/mL
- IFN-a (donor 28186): 4 pg/mL
- IFN-g (donor 28186): 4 pg/mL
- IFN-a (donor 28187): 4 pg/mL
- IFN-g (donor 28187): 30 pg/mL
- IFN-a (donor 28188): 31 pg/mL
- IFN-g (donor 28188): 5 pg/mL
- IFN-a (pg/ml) mean: 11 pg/mL
- IFN-g (pg/ml) mean: 10 pg/mL
- IFN-a (pg/ml) ×2: 22 pg/mL
- IFN-g (pg/ml) ×4: 40 pg/mL

Substance: 5′-TCGTCGA-3′-C3-5′-TCGTCGA-3′-C3-5′-TCGTCGA-3′ all phosphorothioate linkages [Compound C-33]
- IFN-α (Table 9, donor 28089): 56 pg/mL
- IFN-γ (Table 9, donor 28089): 0 pg/mL
- IFN-α (Table 9, donor 28090): 22 pg/mL
- IFN-γ (Table 9, donor 28090): 0 pg/mL
- IFN-α (Table 9, donor 28098): 34 pg/mL
- IFN-γ (Table 9, donor 28098): 0 pg/mL
- IFN-α (Table 9, donor 28099): 30 pg/mL
- IFN-γ (Table 9, donor 28099): 3 pg/mL
- IFN-α mean (Table 9, mean of donors): 36 pg/mL
- IFN-γ mean (Table 9, mean of donors): 1 pg/mL
- IFN-α (Table 24, donor 28234): 16 pg/mL
- IFN-γ (Table 24, donor 28234): 23 pg/mL
- IFN-α (Table 24, donor 28235): 16 pg/mL
- IFN-γ (Table 24, donor 28235): 86 pg/mL
- IFN-α (Table 24, donor 28236): 16 pg/mL
- IFN-γ (Table 24, donor 28236): 247 pg/mL
- IFN-α (Table 24, donor 28237): 91 pg/mL
- IFN-γ (Table 24, donor 28237): 2076 pg/mL
- IFN-α mean [1]: 35 pg/mL
- IFN-γ mean [1]: 608 pg/mL
